Article PMC10945559, “Forgotten Natural Products: Semisynthetic Development of Blasticidin S As an Antibiotic Lead” (ACS Medicinal Chemistry Letters, 2024)
Converted amounts (≈) assume the structure as drawn. Like-named read-outs stand apart in the source and are kept apart here.

Columns and labels:
S. aureus 8810 = assay: Broth microdilution antibacterial assay; type: cell-based, Staphylococcus aureus
Protocol: (§1) Antibacterial Assay Procedure
(§2) Broth Microdilution Assays
(§3) Media and solutions were autoclaved or sterile filtered prior to use and manipulations were carried out in a laminar flow hood. Antibacterial testing was performed in polypropylene 96 -well flat bottom plates. The minimal inhibitory concentration of blasticidin S ( 1) hydrochloride, P10 (2), and derivatives 15–22 were assessed against Staphylococcus aureus ΔNorA, S. aureus 8810, methicillin-resistant S. aureus (MRSA) ATCC 43300, Enterococcus faecalis ATCC 29212, vancomycin-resistant Enterococcus, Klebsiella pneumoniae ATCC 29665, Pseudomonas aeruginosa, and Acinetobacter baumannii ATCC 17978 using serial dilutions. Doxycycline (Gold Bio) as a positive control and the vehicle as a negative control. Stock solutions of each compound were prepared at 5.12 mg/mL in 50% DMSO/water and serially diluted in 50% DMSO/water to create master plates. From the master plates, 10 μL of each dilution was applied to test plates using a Bravo automated liquid transfer system (Agilent). Bacteria previously grown overnight (37 °C, 120 – 200 RPM), in LB broth were diluted to an OD600 of 0.0 5 in cation-adjusted Mueller-Hinton broth, grown to an OD600 of ~0.5, and diluted to an OD600 of 0.004 in cation-adjusted Mueller-Hinton broth. These diluted cultures were applied to the test plates (190 μL per test well) resulting in final concentrations of the test compounds of 256–2 μg/mL. Growth controls (wells with inoculated media but no vehicle or test compounds) were included to assess any potential toxicity from the vehicle. The plates were incubated at 37 °C for 16–18 h, except for VRE and E. faecalis, which were incubated at 37 °C for 24 h. Inhibition was determined by measuring the optical density at 600 nm (OD600) with a Cytation 3 plate reader (BioTek). The optical density measurements were normalized to the positive and negative controls and the vehicle and growth controls were compared and found to be indistinguishable, indicating no toxicity from the vehicle used. The MIC was the lowest concentration that inhibited >90% of growth. Two biological replicates were performed in duplicate. MIC values are reported […]
(§4) as a range from biological replicates. Inhibition curves were generated using Prism (GraphPad).
(§5) The IC50 values reported in Table 2 are the average of the two biological replicates ± standard […]
(§6) Cytotoxicity Assay Procedure
(§7) Human lung fibroblast cells, MRC -5 (CCL-171), were cultured at 37℃ with 5% CO2 and were plated at 5000 cells/well in a 96 -well plate. Compounds 1, 2, and 15-22 were initially prepared at concentrations of 5.12 mg/mL in a vehicle of 50% DMSO. Dilutions of the compounds (4 – 512 μg/mL) were then prepared in growth medium containing Dulbecco’s modified Eagle’s medium (DMEM) with high glucose, L -glutamine, and sodium pyruvate supplemented with 10% fetal bovine serum (FBS), 1% non -essential amino acids, and 0.1% gentamicin sulfate, and 25mM HEPES. The vehicle (50% DMSO) was also prepared via the sa me dilution series to serve as a control. Growth media was removed from the cells and replaced with the same volume of each compound dilution. Cells were incubated for 24 h , after which CellTiter 96® AQueous One Solution Reagent was added to each well as recommended by the manufacturer’s protocol (Promega CellTiter 96 AQueous One Solution Cell Proliferation Assay) and further incubated for 4 h. After incubation, absorbance was measured at 490 nm on an Infinite M plex multimode microplate reader with i -control Tecan software. Viability was calculated by subtracting media only absorbance values and normalizing to the vehicle control at each concentration. The presented data is one assay performed in triplicate that is representative of multiple trials. Data for the 256 and 512 μg/mL concentrations were removed from analysis due to vehicle toxicity […]
(§8) CC50 concentrations were determined via the ED50 Plus v1.0 software (https://archive.org/details/ed50v10_zip).

[1] = tested on: methicillin-resistant S. aureus (MRSA) ATCC 43300; assay: Broth microdilution antibacterial assay; type: cell-based, Staphylococcus aureus
Protocol: as §1, §2, §3, §4, §5, §6, §7, §8

Pseudomonas aeruginosa = assay: Broth microdilution antibacterial assay; type: cell-based
Protocol: as §1, §2, §3, §4, §5, §6, §7, §8

[2] = tested on: Enterococcus faecalis ATCC 29212; assay: Broth microdilution antibacterial assay; type: cell-based
Protocol: as §1, §2, §3, §4, §5, §6, §7, §8

[3] = tested on: Klebsiella pneumoniae ATCC 29665; assay: Broth microdilution antibacterial assay; type: cell-based
Protocol: as §1, §2, §3, §4, §5, §6, §7, §8

[4] = tested on: Acinetobacter baumannii ATCC 17978; assay: Broth microdilution antibacterial assay; type: cell-based
Protocol: as §1, §2, §3, §4, §5, §6, §7, §8

[5] = tested on: Staphylococcus aureus ΔNorA; assay: Broth microdilution antibacterial assay; type: cell-based
Protocol: as §1, §2, §3, §4, §5, §6, §7, §8

[6] = tested on: vancomycin-resistant Enterococcus (VRE); assay: Broth microdilution antibacterial assay; type: cell-based
Protocol: as §1, §2, §3, §4, §5, §6, §7, §8

[7] = tested on: MRC-5 lung fibroblast cells; assay: in vitro; type: cell-based, human; conditions: average of SI (CC50/IC50) over the bacteria tested
Protocol: as §4, §5, §6, §7, §8
(§9) Figure S41. The effect of compounds on cell viability. The lines represent non -linear regression curves, and error bars represent means ± […]
(§10) SD (n=3). […]

in vitro = type: cell-based, human; conditions: human; MRC-5 (lung fibroblast); 24 h; one biological replicate (n = 3); read-out: CC50 for human cells
Protocol: as §4, §5, §6, §7, §8, §9, §10

[8] = design: method as in PMID 5842139; conditions: cited from earlier work
[9] = Klebsiella pneumoniae, ATCC29665
[10] = Acinetobacter baumannii, ATCC17978

Q: What does the source list for `CN(CC[C@H](N)CC(=O)N[C@H]1C=C[C@H](n2ccc(N)nc2=O)O[C@@H]1C(=O)O)C(=N)N` [Compound 1, blasticidin S]?
A: Selectivity index (CC50/IC50) (S. aureus 8810; MRC-5 CC50 / S. aureus IC50): 0.6; IC50 (S. aureus 8810; Staphylococcus aureus, 8810): 33.2 ± 0.8 µg/mL (≈ 78.6 µM); MIC (S. aureus 8810; Staphylococcus aureus, 8810): > 256 µg/mL; MIC (S. aureus 8810; Staphylococcus aureus, 8810, read-out: Average Activity against S. aureus): > 256 µg/mL; Selectivity index (CC50/IC50) ([1]; MRC-5 CC50 / MRSA IC50): 0.3; IC50 ([1]; Staphylococcus aureus): 59.7 ± 7.8 µg/mL (≈ 141 µM); MIC ([1]; Staphylococcus aureus): 256 µg/mL (≈ 606 µM); MIC ([1]; Staphylococcus aureus, read-out: Average Activity against MRSA): 256 µg/mL (≈ 606 µM); Selectivity index (CC50/IC50) (Pseudomonas aeruginosa; MRC-5 CC50 / P. aeruginosa IC50): 0.3; IC50 (Pseudomonas aeruginosa; Pseudomonas aeruginosa): 61 ± 6 µg/mL (≈ 144 µM); MIC (Pseudomonas aeruginosa; Pseudomonas aeruginosa): 256 µg/mL (≈ 606 µM); IC50 ([2]; Enterococcus faecalis, ATCC29212): 26.3 ± 13 µg/mL (≈ 62.3 µM); MIC ([2]; Enterococcus faecalis, ATCC29212, 24 h): 32 to 64 µg/mL (≈ 75.7 to 151 µM); MIC ([2]; Enterococcus faecalis, ATCC29212, read-out: Average Activity against E. faecalis): 64 µg/mL (≈ 151 µM); Selectivity index (CC50/IC50) ([2]; MRC-5 CC50 / E. faecalis IC50): 0.8; IC50 [3, 9]: 42.3 ± 3.5 µg/mL (≈ 100 µM); MIC [3, 9]: 128 µg/mL (≈ 303 µM); Selectivity index (CC50/IC50) ([3]; MRC-5 CC50 / K. pneumoniae IC50): 0.5; IC50 [4, 10]: 104 ± 25 µg/mL (≈ 246 µM); MIC [4, 10]: > 256 µg/mL; Selectivity index (CC50/IC50) ([4]; MRC-5 CC50 / A. baumannii IC50): 0.2; Selectivity index (CC50/IC50) ([5]; MRC-5 CC50 / S. aureus ΔNorA IC50): 0.1; IC50 ([5]; Staphylococcus aureus): 140 ± 8.7 µg/mL (≈ 331 µM); MIC ([5]; Staphylococcus aureus): > 256 µg/mL; IC50 ([6]; Enterococcus, VRE): 58 ± 9.4 µg/mL (≈ 137 µM); MIC ([6]; Enterococcus, VRE, 24 h): 256 µg/mL (≈ 606 µM); MIC ([6]; Enterococcus, VRE, read-out: Average Activity against VRE): 256 µg/mL (≈ 606 µM); Selectivity index (CC50/IC50) ([6]; MRC-5 CC50 / VRE IC50): 0.3; average selectivity index [7]: 0.4; CC50 at 24 h (in vitro): 20.1 µg/mL (≈ 47.6 µM); pKa ([8]; primary amine): 8.0; pKa ([8]; protonated guanidine): > 12.5
